Test [1] has as its system Trypanosoma cruzi. Kind of test: Antitrypanosomal activity against trypomastigotes of Trypanosoma cruzi Tulahuen C2C4 containing lacZ gene in rat L6 cells after 4 days. Particulars: L6, 96 h. Type of test: functional, organism-based.
Test [2] has as its system Escherichia coli. Put plainly: Antibacterial activity against Escherichia coli after 24 hrs by agar dilution method. The class given is functional. A general note: In agar dilution the substance is mixed into plates at graded concentrations.
Test [3] concerns Proteus mirabilis. Put plainly: Antibacterial activity against Proteus mirabilis after 24 hrs by agar dilution method. Type of test: functional.
For test [4], the system named is Staphylococcus epidermidis. Kind of test: Antibacterial activity against Staphylococcus epidermidis after 24 hrs by agar dilution method. Type of test: functional.
Test [5] relates to Streptococcus. Put plainly: Antibacterial activity against gamma-streptococcus after 24 hrs by agar dilution method. Type of test: functional.
The subject of test [6] is Staphylococcus. Kind of test: Antibacterial activity against Staphylococcus albus after 24 hrs by agar dilution method. Type of test: functional.
The test system of test [7] is Aeromonas hydrophila. Put plainly: Antibacterial activity against Aeromonas hydrophila after 24 hrs by agar dilution method. The class given is functional.
The test system of test [8] is Enterococcus faecalis. Put plainly: Antibacterial activity against Enterococcus faecalis after 24 hrs by agar dilution method. The class given is functional.
Test [9] has as its system Morganella morganii. Put plainly: Antibacterial activity against Morganella morganii after 24 hrs by agar dilution method. Type of test: functional.
Test [10] deals with Staphylococcus aureus. Put plainly: Antibacterial activity against Staphylococcus aureus after 24 hrs by agar dilution method. Type of test: functional.
In test [11] the test system is Serratia marcescens. Kind of test: Antibacterial activity against Serratia marcescens after 24 hrs by agar dilution method. Type of test: functional.
The test system of test [12] is Klebsiella pneumoniae. Kind of test: Antibacterial activity against Klebsiella pneumoniae after 24 hrs by agar dilution method. Type of test: functional.
Test [13] has as its system Citrobacter freundii. Put plainly: Antibacterial activity against Citrobacter freundii after 24 hrs by agar dilution method. The class given is functional.
Test [14] deals with Shigella boydii. Kind of test: Antibacterial activity against Shigella boydii after 24 hrs by agar dilution method. Type of test: functional.
Test [15] deals with Pseudomonas aeruginosa. Kind of test: Antibacterial activity against Pseudomonas aeruginosa after 24 hrs by agar dilution method. Type of test: functional.
The subject of test [16] is Salmonella enterica subsp. enterica. Put plainly: Antibacterial activity against Salmonella enteritidis after 24 hrs by agar dilution method. The class given is functional, Salmonella enterica subsp. enterica serovar Enteritidis.
The subject of test [17] is Salmonella typhimurium. Kind of test: Antibacterial activity against Salmonella Typhimurium after 24 hrs by agar dilution method. Type of test: functional, Salmonella enterica subsp. enterica serovar Typhimurium. Particulars: Salmonella enterica.
Test [18] deals with Streptococcus pneumoniae. Kind of test: Antibacterial activity against Streptococcus pneumoniae after 24 hrs by agar dilution method. The class given is functional.
In test [19] the test system is Proteus vulgaris. Put plainly: Antibacterial activity against Proteus vulgaris after 24 hrs by agar dilution method. The class given is functional.
The subject of test [20] is Shigella sonnei. Kind of test: Antibacterial activity against Shigella sonnei after 24 hrs by agar dilution method. The class given is functional.
In test [21] the test system is Shigella flexneri. Kind of test: Antibacterial activity against Shigella flexneri after 24 hrs by agar dilution method. The class given is functional.

In brackets after ≈: the same amount, converted by molar mass.

Consider `CCn1cc(C(=O)OC)c(=O)c2cc(F)c(Sc3ccccc3)c(Sc3ccccc3)c21`, for which the IC50 in test [1] came to 2.4 µg/mL (≈ 5.15 µM).
On to `CCn1cc(C(=O)O)c(=O)c2cc(Sc3ccccc3)c(Sc3ccccc3)c(Sc3ccccc3)c21`, for which half-maximal inhibition in [1] (IC50) required 39.9 µg/mL (≈ 73.7 µM).
Same read-out and setting: next, `CCn1cc(C(=O)O)c(=O)c2cc(F)c(Sc3ccc(C)cc3)c(Sc3ccc(C)cc3)c21`: 52.7 µg/mL (≈ 110 µM); `CCn1cc(C(N)=O)c(=O)c2cc(F)c(Oc3ccccc3)c(Oc3ccccc3)c21`: 4 µg/mL (≈ 9.56 µM); `CCn1cc(C(N)=O)c(=O)c2cc(F)c(Sc3ccccc3)c(Sc3ccccc3)c21`: greater than 90 µg/mL.
In test [1], `CCn1cc(C(=O)O)c(=O)c2cc(F)c(OCc3ccccc3)c(OCc3ccccc3)c21` came in with an IC50 of 1.3 µg/mL (≈ 2.91 µM).
`O=C(O)c1cn(C2CC2)c2c(F)c(Oc3ccccc3)c(F)cc2c1=O`: the MIC in test [2] is 3.13 µg/mL (≈ 8.76 µM); in test [3] it was 6.25 µg/mL (≈ 17.5 µM); in [4] it was 1.56 µg/mL (≈ 4.37 µM); in [5], greater than 25 µg/mL; in test [6], 1.56 µg/mL (≈ 4.37 µM); in [7], 6.25 µg/mL (≈ 17.5 µM). Also, the minimum inhibitory concentration (MIC) in test [8] was found to be 12.5 µg/mL (≈ 35 µM); in test [9], 3.13 µg/mL (≈ 8.76 µM); in test [10], 0.39 µg/mL (≈ 1.09 µM); in test [11] it was 12.5 µg/mL (≈ 35 µM); in test [12] it was 1.56 µg/mL (≈ 4.37 µM); in test [13], 1.56 µg/mL (≈ 4.37 µM). Besides, the MIC in test [14] worked out at 1.56 µg/mL (≈ 4.37 µM); in [15], 12.5 µg/mL (≈ 35 µM); in test [16], 3.13 µg/mL (≈ 8.76 µM); in test [17] it was 3.13 µg/mL (≈ 8.76 µM); in test [18], 0.098 µg/mL (≈ 0.274 µM); in [19], 6.25 µg/mL (≈ 17.5 µM). Besides, the MIC in [20] was 1.56 µg/mL (≈ 4.37 µM); in test [21], greater than 25 µg/mL. For the same compound, in test [1], the concentration for half-maximal inhibition (IC50) was greater than 90 µg/mL.
In the case of `CCn1cc(C(=O)O)c(=O)c2cc(F)c(Sc3ccccc3)c(F)c21`, the MIC in [2] is greater than 25 µg/mL; in test [3] it was greater than 25 µg/mL; in [4], 3.13 µg/mL (≈ 8.66 µM); in test [5], greater than 25 µg/mL; in test [6], greater than 25 µg/mL; in [7] it was greater than 25 µg/mL. The MIC in [8] is greater than 25 µg/mL; in test [9] it was greater than 25 µg/mL; in test [10] it was 3.13 µg/mL (≈ 8.66 µM); in test [11] it was greater than 25 µg/mL; in test [12], 12.5 µg/mL (≈ 34.6 µM); in test [13], 12.5 µg/mL (≈ 34.6 µM). Also, the MIC in [14] was 12.5 µg/mL (≈ 34.6 µM); in test [15], greater than 25 µg/mL; in test [16] it was greater than 25 µg/mL; in [17], greater than 25 µg/mL; in test [18] it was 0.78 µg/mL (≈ 2.16 µM); in test [19], greater than 25 µg/mL. Moreover, the values for the MIC in test [20] and in [21] were 12.5 µg/mL (≈ 34.6 µM) and greater than 25 µg/mL, respectively. For the same compound, the IC50 in test [1] came out at 34.6 µg/mL (≈ 95.7 µM).
Take `CCn1cc(C(=O)O)c(=O)c2cc(F)c(OCc3ccccc3)c(F)c21`: the MIC in test [2] was greater than 25 µg/mL; in test [3] it was greater than 25 µg/mL; in test [4], 25 µg/mL (≈ 69.6 µM); in test [5], greater than 25 µg/mL; in test [6] it was greater than 25 µg/mL; in test [7] it was greater than 25 µg/mL. Also, the MIC in test [8] was greater than 25 µg/mL; in [9], greater than 25 µg/mL; in test [10], 6.25 µg/mL (≈ 17.4 µM); in test [11] it was greater than 25 µg/mL; in test [12] it was 6.25 µg/mL (≈ 17.4 µM); in test [13], 25 µg/mL (≈ 69.6 µM). Also, the MIC was 25 µg/mL (≈ 69.6 µM) in test [14]; greater than 25 µg/mL in test [15]; greater than 25 µg/mL in [16]; 25 µg/mL (≈ 69.6 µM) in test [17]; 1.56 µg/mL (≈ 4.34 µM) in [18]; greater than 25 µg/mL in [19]. The MIC in [20] was 12.5 µg/mL (≈ 34.8 µM); in [21], greater than 25 µg/mL. For the same compound, inhibition in test [1] was half-maximal at 18.3 µg/mL (≈ 50.9 µM) (IC50).
Regarding `O=C(O)c1cn(C2CC2)c2c(F)c(OCc3ccccc3)c(F)cc2c1=O`, the MIC came to 1.56 µg/mL (≈ 4.2 µM) in test [2]; 6.25 µg/mL (≈ 16.8 µM) in test [3]; 1.56 µg/mL (≈ 4.2 µM) in test [4]; 6.25 µg/mL (≈ 16.8 µM) in test [5]; 6.25 µg/mL (≈ 16.8 µM) in [6]; 3.13 µg/mL (≈ 8.43 µM) in test [7]. The MIC in test [8] came to 12.5 µg/mL (≈ 33.7 µM); in test [9] it was 6.25 µg/mL (≈ 16.8 µM); in [10] it was 1.56 µg/mL (≈ 4.2 µM); in test [11], 6.25 µg/mL (≈ 16.8 µM); in [12] it was 0.78 µg/mL (≈ 2.1 µM); in test [13], 1.56 µg/mL (≈ 4.2 µM). Besides, the MIC in test [14] was 1.56 µg/mL (≈ 4.2 µM); in test [15] it was 6.25 µg/mL (≈ 16.8 µM); in test [16] it was 3.13 µg/mL (≈ 8.43 µM); in test [17] it was 1.56 µg/mL (≈ 4.2 µM); in test [18] it was 1.56 µg/mL (≈ 4.2 µM); in test [19], 6.25 µg/mL (≈ 16.8 µM). Also, the MIC in test [20] is 1.56 µg/mL (≈ 4.2 µM); in test [21], greater than 25 µg/mL. This compound had an IC50 in [1] greater than 90 µg/mL.
Regarding `CCn1cc(C(=O)OC)c(=O)c2cc(F)c(Oc3ccccc3)c(Oc3ccccc3)c21`, the IC50 in test [1] is greater than 90 µg/mL.
Consider `CCOC(=O)c1cn(CC)c2c(Oc3ccccc3)c(Oc3ccccc3)c(F)cc2c1=O`, for which the IC50 in [1] stood at 1.7 µg/mL (≈ 3.8 µM).
In [1], `CCOC(=O)c1cn(CC)c2c(Sc3ccccc3)c(Sc3ccccc3)c(F)cc2c1=O` had an IC50 of 6 µg/mL (≈ 12.5 µM).
In test [1], `CCOC(=O)c1cn(CC)c2c(OCc3ccccc3)c(OCc3ccccc3)c(F)cc2c1=O` displayed an IC50 of 1.7 µg/mL (≈ 3.58 µM).
Same read-out and setting: as for `CCn1cc(C(=O)O)c(=O)c2cc(F)c(Oc3ccc(O)cc3)c(Oc3ccc(O)cc3)c21`, the figure is 57.1 µg/mL (≈ 126 µM).
The same measure, in the same setting: as for `CCn1cc(C(=O)O)c(=O)c2cc(OCc3ccccc3)c(OCc3ccccc3)c(OCc3ccccc3)c21`, the figure is 2.5 µg/mL (≈ 4.67 µM).

By IC50 is commonly meant the concentration that inhibits the measured activity by half. By MIC is commonly meant the least concentration at which growth counts as inhibited. The low end stands for inhibition by little substance, the high end for a need for much substance.
